Results on three compounds are retold here after ChEMBL document CHEMBL4837249, “Discovery of Potent Antiallergic Agents Based on an o-Aminopyridinyl Alkynyl Scaffold” (J Med Chem, 2021).

Assay [1] concerns the target T1, Proto-oncogene tyrosine-protein kinase Src (Homo sapiens, UniProt P12931). Briefly: Inhibition of human recombinant Src (1-530) at 500 nM by radiometric scintillation counting analysis relative to control.
Assay [2] deals with Tyrosine-protein kinase JAK1 (Homo sapiens) (UniProt P23458). Briefly: Inhibition of human recombinant JAK1 at 50 nM radiometric scintillation counting analysis relative to control.
Chain of Tyrosine-protein kinase JAK1 (Homo sapiens) (P23458 whole entry): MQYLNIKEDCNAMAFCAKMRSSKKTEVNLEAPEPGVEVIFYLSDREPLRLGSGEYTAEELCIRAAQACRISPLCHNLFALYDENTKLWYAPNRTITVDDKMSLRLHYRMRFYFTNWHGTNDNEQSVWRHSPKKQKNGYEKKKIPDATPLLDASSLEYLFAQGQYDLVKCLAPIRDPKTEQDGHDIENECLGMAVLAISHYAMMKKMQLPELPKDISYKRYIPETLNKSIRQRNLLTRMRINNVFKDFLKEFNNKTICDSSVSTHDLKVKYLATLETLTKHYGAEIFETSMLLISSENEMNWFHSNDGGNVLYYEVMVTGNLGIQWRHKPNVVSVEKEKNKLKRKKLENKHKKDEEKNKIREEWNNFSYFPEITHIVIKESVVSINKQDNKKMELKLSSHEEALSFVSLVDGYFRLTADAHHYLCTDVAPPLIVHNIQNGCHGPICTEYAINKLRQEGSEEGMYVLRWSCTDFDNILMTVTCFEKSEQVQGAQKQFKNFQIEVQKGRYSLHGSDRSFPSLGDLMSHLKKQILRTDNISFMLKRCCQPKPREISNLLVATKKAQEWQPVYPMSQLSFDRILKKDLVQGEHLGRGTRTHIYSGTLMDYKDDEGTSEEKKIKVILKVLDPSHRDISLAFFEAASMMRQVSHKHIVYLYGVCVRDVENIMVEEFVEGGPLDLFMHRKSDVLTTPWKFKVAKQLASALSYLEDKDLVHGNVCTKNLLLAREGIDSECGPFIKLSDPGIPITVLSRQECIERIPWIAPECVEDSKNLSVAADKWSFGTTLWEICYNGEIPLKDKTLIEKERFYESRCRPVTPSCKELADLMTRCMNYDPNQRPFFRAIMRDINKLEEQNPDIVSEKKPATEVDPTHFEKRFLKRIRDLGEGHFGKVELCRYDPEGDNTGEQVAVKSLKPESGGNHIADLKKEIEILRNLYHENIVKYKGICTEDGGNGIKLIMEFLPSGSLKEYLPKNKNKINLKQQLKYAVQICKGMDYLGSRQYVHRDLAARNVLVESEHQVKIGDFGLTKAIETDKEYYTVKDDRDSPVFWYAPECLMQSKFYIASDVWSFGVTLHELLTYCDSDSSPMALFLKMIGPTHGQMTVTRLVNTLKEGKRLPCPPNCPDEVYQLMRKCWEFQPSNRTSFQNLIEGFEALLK
For assay [3], the target named is T2, Tyrosine-protein kinase ABL1 (Homo sapiens, UniProt P00519). The assay is described as follows: Inhibition of human recombinant ABL1 using ATP/Ulight-TK peptide at 50 nM incubated for 15 mins relative to control.
T2 sequence (P00519 whole entry): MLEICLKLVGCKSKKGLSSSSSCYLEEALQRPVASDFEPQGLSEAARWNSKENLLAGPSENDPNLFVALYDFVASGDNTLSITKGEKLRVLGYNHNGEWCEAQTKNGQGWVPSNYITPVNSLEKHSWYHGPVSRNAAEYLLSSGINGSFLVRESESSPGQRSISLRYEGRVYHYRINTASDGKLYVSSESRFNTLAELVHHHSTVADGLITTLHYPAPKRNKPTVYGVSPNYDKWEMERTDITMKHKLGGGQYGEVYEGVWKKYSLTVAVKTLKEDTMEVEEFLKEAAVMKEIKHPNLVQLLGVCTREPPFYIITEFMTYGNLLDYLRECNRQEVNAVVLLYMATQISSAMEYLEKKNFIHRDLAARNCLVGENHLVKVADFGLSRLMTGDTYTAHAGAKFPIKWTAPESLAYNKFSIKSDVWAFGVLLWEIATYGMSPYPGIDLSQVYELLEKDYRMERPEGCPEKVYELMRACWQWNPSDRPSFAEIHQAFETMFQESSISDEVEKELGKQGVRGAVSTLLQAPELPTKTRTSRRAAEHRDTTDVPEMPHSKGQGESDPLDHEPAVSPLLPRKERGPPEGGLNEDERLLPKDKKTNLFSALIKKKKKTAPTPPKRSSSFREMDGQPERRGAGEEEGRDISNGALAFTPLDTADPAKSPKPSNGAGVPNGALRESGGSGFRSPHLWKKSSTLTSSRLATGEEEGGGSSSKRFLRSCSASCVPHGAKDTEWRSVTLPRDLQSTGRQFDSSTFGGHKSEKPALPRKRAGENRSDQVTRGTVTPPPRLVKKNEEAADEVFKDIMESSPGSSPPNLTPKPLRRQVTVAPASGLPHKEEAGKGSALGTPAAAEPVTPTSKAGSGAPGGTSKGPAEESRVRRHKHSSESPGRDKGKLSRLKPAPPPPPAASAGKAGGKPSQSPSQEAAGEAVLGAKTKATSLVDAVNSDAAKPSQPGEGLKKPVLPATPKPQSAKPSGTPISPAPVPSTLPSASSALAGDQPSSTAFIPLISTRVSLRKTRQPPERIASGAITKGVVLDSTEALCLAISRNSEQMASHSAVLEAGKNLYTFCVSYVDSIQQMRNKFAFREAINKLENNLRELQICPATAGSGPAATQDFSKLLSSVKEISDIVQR
In assay [4] the target is T3, Tyrosine-protein kinase Lck (Homo sapiens, UniProt P06239). The assay is described as follows: Inhibition of human full length recombinant LCK at 500 nM by radiometric scintillation counting analysis relative to control.
The target in assay [5] is Tyrosine-protein kinase Fgr (Homo sapiens, UniProt P09769). Briefly: Inhibition of human recombinant FGR (456 to 770) at 500 nM by radiometric scintillation counting analysis relative to control.
Chain of Tyrosine-protein kinase Fgr (P09769 2-529 limits assumed): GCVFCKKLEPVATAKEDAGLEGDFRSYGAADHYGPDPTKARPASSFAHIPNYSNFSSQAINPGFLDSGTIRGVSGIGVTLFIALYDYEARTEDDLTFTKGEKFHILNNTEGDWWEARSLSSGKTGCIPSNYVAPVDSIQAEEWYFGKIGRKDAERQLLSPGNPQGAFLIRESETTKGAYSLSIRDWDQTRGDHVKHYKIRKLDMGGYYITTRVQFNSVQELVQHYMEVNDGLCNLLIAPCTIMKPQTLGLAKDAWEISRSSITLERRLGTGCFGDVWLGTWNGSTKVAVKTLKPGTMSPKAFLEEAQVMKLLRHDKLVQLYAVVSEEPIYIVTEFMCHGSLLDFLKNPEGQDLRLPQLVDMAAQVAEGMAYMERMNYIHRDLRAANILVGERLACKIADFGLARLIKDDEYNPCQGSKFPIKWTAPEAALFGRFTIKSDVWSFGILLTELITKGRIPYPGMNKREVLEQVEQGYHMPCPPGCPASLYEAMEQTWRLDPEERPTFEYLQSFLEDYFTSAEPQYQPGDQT
The target in assay [6] is Platelet-derived growth factor receptor alpha (Homo sapiens) (UniProt P16234). The assay is described as follows: Inhibition of human recombinant PDGFRalpha (550 to end) at 5 nM by radiometric scintillation counting analysis relative to control.
Chain of Platelet-derived growth factor receptor alpha (Homo sapiens) (P16234 whole entry): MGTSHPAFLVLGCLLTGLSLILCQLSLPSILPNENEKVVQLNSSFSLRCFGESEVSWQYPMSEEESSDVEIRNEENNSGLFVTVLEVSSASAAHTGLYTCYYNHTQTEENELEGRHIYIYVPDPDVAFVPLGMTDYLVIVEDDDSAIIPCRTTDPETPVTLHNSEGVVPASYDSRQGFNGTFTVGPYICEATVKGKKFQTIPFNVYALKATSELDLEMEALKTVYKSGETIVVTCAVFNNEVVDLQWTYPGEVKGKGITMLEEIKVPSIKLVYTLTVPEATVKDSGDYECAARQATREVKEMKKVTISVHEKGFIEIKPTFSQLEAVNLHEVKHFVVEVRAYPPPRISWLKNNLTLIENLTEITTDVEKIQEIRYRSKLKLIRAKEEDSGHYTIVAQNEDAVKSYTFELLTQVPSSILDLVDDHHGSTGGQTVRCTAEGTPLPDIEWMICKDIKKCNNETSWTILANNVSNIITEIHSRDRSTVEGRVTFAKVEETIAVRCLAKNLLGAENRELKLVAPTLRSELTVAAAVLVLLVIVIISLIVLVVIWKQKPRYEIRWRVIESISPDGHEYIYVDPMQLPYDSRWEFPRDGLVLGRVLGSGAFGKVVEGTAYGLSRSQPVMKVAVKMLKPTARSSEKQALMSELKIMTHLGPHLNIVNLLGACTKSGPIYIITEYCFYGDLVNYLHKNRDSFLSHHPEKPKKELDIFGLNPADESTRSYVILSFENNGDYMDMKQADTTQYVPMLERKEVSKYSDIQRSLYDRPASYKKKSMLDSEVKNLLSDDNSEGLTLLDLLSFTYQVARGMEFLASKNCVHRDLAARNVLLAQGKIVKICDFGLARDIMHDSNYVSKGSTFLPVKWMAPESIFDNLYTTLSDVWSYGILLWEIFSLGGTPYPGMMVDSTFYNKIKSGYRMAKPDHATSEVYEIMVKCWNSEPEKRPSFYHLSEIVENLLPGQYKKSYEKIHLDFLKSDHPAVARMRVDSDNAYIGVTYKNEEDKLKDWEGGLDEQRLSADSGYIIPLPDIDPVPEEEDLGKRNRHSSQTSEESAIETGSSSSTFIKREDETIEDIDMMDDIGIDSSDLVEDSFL
In assay [7] the target is Macrophage colony-stimulating factor 1 receptor (Homo sapiens, UniProt P07333). The assay is described as follows: Inhibition of human recombinant CSF1R using ATP/Ulight-TK peptide at 500 nM incubated for 15 mins relative to control.
Assay [8] has as its target T4, Tyrosine-protein kinase Fyn (Homo sapiens, UniProt P06241). Briefly: Inhibition of human recombinant Fyn (218 to end) at 50 nM incubated for 15 mins relative to control.
The target of assay [9] is T3, Tyrosine-protein kinase Lck. The assay is described as follows: Inhibition of human full length recombinant LCK at 5 nM by radiometric scintillation counting analysis relative to control.
The target of assay [10] is Tyrosine-protein kinase CSK (Homo sapiens, UniProt P41240). Briefly: Inhibition of human full length recombinant CSK at 50 nM by radiometric scintillation counting analysis relative to control.
Chain of Tyrosine-protein kinase CSK (P41240 2-450 limits assumed): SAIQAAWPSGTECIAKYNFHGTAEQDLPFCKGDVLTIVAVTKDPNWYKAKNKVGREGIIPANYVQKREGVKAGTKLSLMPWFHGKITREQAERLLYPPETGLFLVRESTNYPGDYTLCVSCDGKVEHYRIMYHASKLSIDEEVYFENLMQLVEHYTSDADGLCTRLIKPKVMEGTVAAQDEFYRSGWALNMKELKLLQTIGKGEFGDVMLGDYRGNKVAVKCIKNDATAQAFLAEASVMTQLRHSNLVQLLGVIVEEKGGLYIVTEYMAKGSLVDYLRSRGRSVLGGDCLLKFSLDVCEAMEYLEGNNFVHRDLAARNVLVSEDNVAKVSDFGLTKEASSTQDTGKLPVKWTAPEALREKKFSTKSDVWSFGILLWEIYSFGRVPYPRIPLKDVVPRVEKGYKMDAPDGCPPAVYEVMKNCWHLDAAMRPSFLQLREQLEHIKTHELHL
Assay [11] concerns the target T5, Inhibitor of nuclear factor kappa-B kinase subunit alpha (Homo sapiens) (UniProt O15111).
T5 sequence (whole entry): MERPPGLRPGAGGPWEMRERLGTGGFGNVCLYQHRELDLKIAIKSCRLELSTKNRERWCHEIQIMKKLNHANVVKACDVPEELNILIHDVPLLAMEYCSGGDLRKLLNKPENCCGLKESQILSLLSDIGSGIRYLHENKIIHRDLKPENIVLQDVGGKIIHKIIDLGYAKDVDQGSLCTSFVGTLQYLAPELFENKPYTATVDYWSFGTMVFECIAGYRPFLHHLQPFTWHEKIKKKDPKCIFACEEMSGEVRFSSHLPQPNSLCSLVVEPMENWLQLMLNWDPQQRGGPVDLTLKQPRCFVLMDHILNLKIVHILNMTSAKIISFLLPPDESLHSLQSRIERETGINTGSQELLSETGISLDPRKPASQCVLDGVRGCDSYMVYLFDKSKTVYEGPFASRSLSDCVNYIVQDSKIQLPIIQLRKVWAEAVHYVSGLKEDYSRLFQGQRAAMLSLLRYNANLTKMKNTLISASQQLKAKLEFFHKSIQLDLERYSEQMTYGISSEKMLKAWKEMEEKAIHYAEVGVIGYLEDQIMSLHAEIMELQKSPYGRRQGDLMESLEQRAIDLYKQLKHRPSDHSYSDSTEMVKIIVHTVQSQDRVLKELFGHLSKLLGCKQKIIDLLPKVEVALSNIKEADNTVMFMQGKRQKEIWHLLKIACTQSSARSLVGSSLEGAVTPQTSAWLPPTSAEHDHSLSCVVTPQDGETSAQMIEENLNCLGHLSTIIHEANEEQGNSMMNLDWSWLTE
The assay is described as follows: Inhibition of human full length recombinant IKKalpha at 500 nM by radiometric scintillation counting analysis relative to control.

For assay [12], the target named is T6, Cytoplasmic tyrosine-protein kinase BMX (Homo sapiens) (UniProt P51813).
T6 sequence (whole entry): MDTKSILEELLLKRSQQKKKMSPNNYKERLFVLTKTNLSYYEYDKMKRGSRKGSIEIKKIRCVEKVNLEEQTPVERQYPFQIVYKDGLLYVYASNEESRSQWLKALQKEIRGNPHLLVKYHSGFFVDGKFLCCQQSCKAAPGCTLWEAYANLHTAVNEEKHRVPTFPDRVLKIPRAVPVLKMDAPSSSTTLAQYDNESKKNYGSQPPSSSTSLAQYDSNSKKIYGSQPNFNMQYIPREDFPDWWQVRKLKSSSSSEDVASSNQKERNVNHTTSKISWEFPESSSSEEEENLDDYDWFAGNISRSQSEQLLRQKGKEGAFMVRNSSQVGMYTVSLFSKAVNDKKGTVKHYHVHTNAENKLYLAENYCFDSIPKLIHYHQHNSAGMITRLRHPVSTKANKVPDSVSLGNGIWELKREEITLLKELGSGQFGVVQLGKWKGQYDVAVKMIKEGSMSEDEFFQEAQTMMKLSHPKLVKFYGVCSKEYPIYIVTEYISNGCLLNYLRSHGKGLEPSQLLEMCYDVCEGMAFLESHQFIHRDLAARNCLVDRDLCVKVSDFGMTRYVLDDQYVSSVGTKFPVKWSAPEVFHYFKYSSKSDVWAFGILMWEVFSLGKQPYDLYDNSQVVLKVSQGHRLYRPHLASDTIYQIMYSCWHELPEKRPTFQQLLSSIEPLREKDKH
The assay is described as follows: Inhibition of human full length recombinant Bmx at 5 nM by radiometric scintillation counting analysis relative to control.

Assay [13] deals with Tyrosine-protein kinase JAK1 (Homo sapiens) (UniProt P23458). Briefly: Inhibition of human recombinant JAK1 at 500 nM radiometric scintillation counting analysis relative to control.
Assay [14] concerns the target T6, Cytoplasmic tyrosine-protein kinase BMX (Homo sapiens). Briefly: Inhibition of human full length recombinant Bmx at 500 nM by radiometric scintillation counting analysis relative to control.
For assay [15], the target named is Tyrosine-protein kinase Blk (Homo sapiens, UniProt P51451). The assay is described as follows: Inhibition of human full length recombinant BLK at 50 nM by radiometric scintillation counting analysis relative to control.
Assay [16] concerns the target T7, Tyrosine-protein kinase HCK (Homo sapiens, UniProt P08631). Briefly: Inhibition of human recombinant HCK (230 to 497) at 5 nM by radiometric scintillation counting analysis relative to control.
Assay [17] addresses T7, Tyrosine-protein kinase HCK. Briefly: Inhibition of human recombinant HCK (230 to 497) at 50 nM by radiometric scintillation counting analysis relative to control.
Assay [18] concerns the target T4, Tyrosine-protein kinase Fyn. Briefly: Inhibition of human recombinant Fyn (218 to end) at 500 nM incubated for 15 mins relative to control.
In assay [19] the target is T2, Tyrosine-protein kinase ABL1. Briefly: Inhibition of human recombinant ABL1 using ATP/Ulight-TK peptide at 500 nM incubated for 15 mins relative to control.
In assay [20] the target is T1, Proto-oncogene tyrosine-protein kinase Src. The assay is described as follows: Inhibition of human recombinant Src (1-530) at 5 nM by radiometric scintillation counting analysis relative to control.
The target in assay [21] is Mast/stem cell growth factor receptor Kit (Homo sapiens) (UniProt P10721). Briefly: Inhibition of human recombinant c-Kit at 500 nM by radiometric scintillation counting analysis relative to control.

T1 sequence (P12931 2-536 limits assumed): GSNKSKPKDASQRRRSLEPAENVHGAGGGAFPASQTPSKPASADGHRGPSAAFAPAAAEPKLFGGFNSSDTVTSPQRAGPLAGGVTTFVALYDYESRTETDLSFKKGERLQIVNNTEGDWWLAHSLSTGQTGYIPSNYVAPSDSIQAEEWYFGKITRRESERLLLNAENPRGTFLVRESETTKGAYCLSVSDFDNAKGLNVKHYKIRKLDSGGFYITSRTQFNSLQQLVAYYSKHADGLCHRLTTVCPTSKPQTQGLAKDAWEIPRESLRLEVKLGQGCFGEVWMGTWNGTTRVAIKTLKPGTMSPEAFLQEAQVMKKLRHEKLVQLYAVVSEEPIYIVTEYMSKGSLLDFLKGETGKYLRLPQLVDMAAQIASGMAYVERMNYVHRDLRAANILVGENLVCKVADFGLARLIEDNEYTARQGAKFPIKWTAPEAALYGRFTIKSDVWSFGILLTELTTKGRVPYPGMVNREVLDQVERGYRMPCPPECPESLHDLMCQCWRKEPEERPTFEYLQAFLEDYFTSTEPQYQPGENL

A word on the inhibition: it is the drop in the measured response relative to a control, in per cent. As to `Cc1ccc(C(=O)Nc2ccc(OC(F)(F)F)cc2)cc1C#Cc1cc(-c2cnn(C)c2)cnc1N`, the inhibition in [1] came to 96%; in [2], 8%; in assay [3], 96%; in [4] it was 98%; in assay [5], 77%; in [6] it was 7%. In addition, the inhibition in [7] is 90%; in assay [8], 81%; in [9] it was 42%; in [10] it was 4%; in [11], 0%; in [12], -6%. Also, the inhibition was -2% in assay [13]; 20% in [14]; 69% in assay [15]; 68% in assay [16]; 92% in [17]; 96% in [18]. Besides, the inhibition came out at 102% in assay [19], 71% in [20] and 65% in assay [21].
As to `Cc1ccc(C(=O)Nc2ccc(Cl)cc2Cl)cc1C#Cc1cc(-c2cnn(C)c2)cnc1N`, the inhibition in [1] is 79%; in assay [2], -6%; in assay [3] it was 64%; in assay [4], 92%; in [5], 46%; in assay [6], -6%. Also, the inhibition in assay [7] is 98%; in assay [8] it was 43%; in assay [9], 27%; in [10] it was 28%; in assay [11] it was 2%; in assay [12], 21%. In addition, the inhibition in [13] is -8%; in assay [14] it was 23%; in [15], 13%; in assay [16], 1%; in [17] it was 64%; in assay [18] it was 64%. For the same compound, the results for the inhibition in assay [19], in [20] and in [21] were 89%, 4% and 56%, respectively.
With `Cc1ccc(C(=O)Nc2cc(C(F)(F)F)cc(C(F)(F)F)c2)cc1C#Cc1cc(-c2cnn(C)c2)cnc1N`, the inhibition in assay [1] was 92%; in assay [2], 37%; in [3] it was 88%; in assay [4], 77%; in assay [5] it was 101%; in assay [6] it was 1%. Also, the inhibition was 96% in [7]; 55% in assay [8]; 26% in assay [9]; 34% in assay [10]; 12% in assay [11]; 16% in assay [12]. Also, the inhibition is 0% in assay [13]; 89% in [14]; 56% in assay [15]; 11% in assay [16]; 92% in assay [17]; 97% in [18]. The inhibition is 104% in [19], -10% in assay [20] and 17% in [21].
